Measurements reported in PubChem BioAssay (NCI).
Several values for one entry are separate records, joined by “and”; a condition that tells them apart may be missing. Equal values may be shown once.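 Grown in 96-well plates, cells were treated for 48 hours with each compound at five concentrations. Insufficient inhibition: endpoint recorded as highest concentration tested. Here, GI50 denotes the concentration required for 50% inhibition of growth. TGI: total growth inhibition.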

Experiments:
Assay in all cases: NCI tumour cell line growth inhibition, 48 h
[1] = tested on: 786-0 renal
[2] = tested on: CCRF-CEM leukemia
[3] = tested on: EKVX NSCLC
[4] = tested on: HT29 colon
[5] = tested on: LOX IMVI melanoma
[6] = tested on: MDA-MB-435
[7] = tested on: MOLT-4 leukemia
[8] = tested on: NCI-H23 lung
[9] = tested on: NCI/ADR-RES ovarian
[10] = tested on: TK-10 renal

SMILES	GI50 [1]	TGI [1]	GI50 [2]	TGI [2]	GI50 [3]	TGI [3]	GI50 [4]	TGI [4]	GI50 [5]	TGI [5]	GI50 [6]	TGI [6]	TGI [7]	GI50 [8]	TGI [8]	GI50 [9]	TGI [9]	GI50 [10]	TGI [10]	GI50 [7]
COc1cc(NS(C)(=O)=O)ccc1Cc1c2ccccc2nc2ccccc12	0.139 µM	0.64 µM	0.042 µM	0.751 µM	0.993 µM	4.24 µM	0.3 µM	1.82 µM	0.0793 µM	1.48 µM	1.23 µM	11.3 µM	0.0265 µM	0.137 µM	1.48 µM	1.44 µM	10 µM	0.228 µM	1.45 µM	–
COc1cc2c(cc1O)c(=O)n(CCN(C)C)c1c3cc4c(cc3ncc21)OCO4	< 0.01 µM	0.0291 µM	< 0.01 µM	> 26.8 µM	0.239 µM	3.66 µM	0.729 µM	7.86 µM	< 0.01 µM	0.0245 µM	0.0195 µM	0.258 µM	0.0271 µM	< 0.01 µM	0.151 µM	< 0.01 µM	0.526 µM	0.127 µM	0.524 µM	< 0.01 µM
COc1ccc2nc3c(cc2c1)C(=O)CC(c1ccccc1)C3 (stereo not drawn)	2.23 µM	> 100 µM	0.291 µM	> 100 µM	5.81 µM	> 100 µM	0.439 µM	> 100 µM	1.33 µM	> 100 µM	0.137 µM	0.38 µM	> 100 µM	5.4 µM	> 100 µM	0.359 µM	> 100 µM	> 100 µM	> 100 µM	0.364 µM
O=[N+]([O-])c1ccc(N=Nc2c(Cl)cc(O)cc2Cl)cc1	2.22 µM	9.36 µM	0.571 µM	7.25 µM	1.94 µM	5.57 µM	3.7 µM	12.6 µM	1.73 µM	10.6 µM	0.943 µM	3.16 µM	2.99 µM	1.72 µM	6.71 µM	0.863 µM	8.49 µM	4.34 µM	25.8 µM	0.435 µM
Cc1ccc2[nH]c(O)c(N=Nc3ccccc3[N+](=O)[O-])c2c1	–	3.6 µM	–	> 100 µM	–	57.3 µM	–	> 100 µM	–	> 100 µM	–	> 100 µM	> 100 µM	–	77.1 µM	–	> 40.2 µM	–	64.5 µM	–
O=C(Nc1n[nH]c2nc(-c3ccc(O)cc3)c(Br)cc12)C1CC1	4.55 µM	14.3 µM	1.82 µM	> 25 µM	6.34 µM	19 µM	2.04 µM	13.8 µM	1.75 µM	13.1 µM	2.71 µM	7.29 µM	> 25 µM	4.78 µM	16.8 µM	6.49 µM	> 25 µM	7.29 µM	17.4 µM	5.13 µM
CN(/N=C/c1ccccc1O)c1ccc2ccccc2n1	–	31.5 µM	–	> 100 µM	–	54.9 µM	–	90.1 µM	–	> 100 µM	–	> 100 µM	62.6 µM	–	58.4 µM	–	> 100 µM	–	44 µM	–
OCCN(CCO)c1nc(N2CCCCC2)c2nc(N(CCO)CCO)nc(N3CCCCC3)c2n1	–	> 100 µM	–	> 100 µM	–	> 100 µM	–	40 µM	–	> 100 µM	–	> 100 µM	56.5 µM	–	> 100 µM	–	> 100 µM	–	64.6 µM	–
COc1ccc(C2CC(c3ccc(OC)cc3O)=NN2c2ccc(S(N)(=O)=O)cc2)cc1 (stereo not drawn)	18.4 µM	> 100 µM	16.1 µM	> 100 µM	4.48 µM	> 100 µM	11.1 µM	> 100 µM	14.1 µM	> 100 µM	6.56 µM	> 100 µM	36.6 µM	20.5 µM	> 100 µM	8.09 µM	> 100 µM	7.18 µM	> 100 µM	2.88 µM
O=C1/C(=C/c2ccc(F)cc2)CN(C(=O)C(Cl)Cl)C/C1=C\c1ccc(F)cc1	0.213 µM	0.499 µM	0.136 µM	> 24.2 µM	0.393 µM	1.46 µM	0.181 µM	–	0.0346 µM	0.0974 µM	0.212 µM	0.486 µM	> 100 µM	0.259 µM	0.774 µM	0.327 µM	1.71 µM	0.67 µM	1.96 µM	0.309 µM
CCc1[nH]nc(C(N)=O)c1N=NN(C)C	–	> 100 µM	–	> 100 µM	–	> 100 µM	–	> 100 µM	–	> 100 µM	–	> 100 µM	41.6 µM	–	> 100 µM	–	> 100 µM	–	> 100 µM	–
S=C1SCN(Cc2ccccc2)CN1Cc1ccccc1	7.63 µM	23.1 µM	1.15 µM	3.56 µM	21.2 µM	> 57.8 µM	3.89 µM	15.1 µM	3 µM	15 µM	2.35 µM	7.16 µM	5.14 µM	12.1 µM	42.9 µM	33.1 µM	> 100 µM	3.68 µM	12.6 µM	1.44 µM
O=C(Nc1cn[nH]c1-c1nc2ccc(CN3CCOCC3)cc2[nH]1)NC1CC1	1.06 µM and 1.67 µM	7.68 µM and > 10 µM	1.42 µM	8.69 µM	1.76 µM and > 10 µM	9.94 µM and > 10 µM	0.272 µM and 2.22 µM	4.71 µM and > 10 µM	0.324 µM and 0.604 µM	1.88 µM and > 10 µM	1.43 µM and 6.77 µM	5 µM and > 10 µM	5.4 µM and > 10 µM	1.45 µM and 7.06 µM	5.16 µM and > 10 µM	12.1 µM and > 10 µM	> 86.7 µM	1.24 µM and 5.07 µM	6 µM and > 10 µM	1.87 µM and 2.52 µM
C/C(CC(C)(C)N1CC1)=N\NC(=O)Nc1cccc2ccccc12	3.04 µM	9.87 µM	2.37 µM	20.6 µM	5.84 µM	19.9 µM	3.5 µM	13.7 µM	3.13 µM	13.3 µM	6.19 µM	19.9 µM	6.29 µM	3.78 µM	21.3 µM	3.67 µM	22.4 µM	2.81 µM	7.23 µM	2.59 µM
